Results: US6846937B2, “Method for the selective removal of acyl-functionality attached to the 2'-hydroxy-group of paclitaxel-related derivatives” (The University of Toledo, priority 2001, dated 2005)
Blank lines part the entries; values can stand above or below the compound they belong to.

Key:
[1] = Stability of PAC and DAP CAC analogs in methanol at ambient temperature (HPLC decay curve); type: physicochemical
Description: During development of an HPLC method to purify 2′,7-bis-monochloroacetyl-10-deacetylpaclitaxel (2′,7-bis-CAC-DAP), the inventors discovered that the compound was unstable in methanol solution at a concentration of 1 mg/ml. […] Thus, we decided to further investigate the apparent differences in the stability of several PAC and DAP CAC esters relative to concentration and acidity.
Compound abbreviations are provided in FIG. 2-Table 1 according to the nomenclature and numbering specified in FIG. 1. RT=Retention times on an analytical HPLC (Waters) equipped with a reversed-phase column (Supleco Discovery C18) using a gradient elution (60% acetonitrile from 0-2 min., linearly ramped from 60% to 75% from 2-12 min., and held steady at 75% for the duration of the assay) at a flow rate of 1.2 ml/min. monitored by UV detection (225 nm). NMR (CDCl3) values for the C2′ proton shifts are in ppm relative to TMS. T1/2=Apparent half-lives. All compounds were independently prepared and characterized by HPLC, NMR and elemental analyses. ^†Previously reported by Rao et al. ^††Previously reported by Rimoldi et al.^21 *Less than 5% breakdown after 72 hr.
A 1 mg/ml solution of 2′,7-bis-CAC-DAP in methanol was allowed to stand at ambient temperature. 20 μl samples were withdrawn at T=0, 2, 24 and 48 hrs. Longer incubations were deployed for compounds showing little breakdown. Aliquots were assayed directly by HPLC after establishing that responses obtained for serial dilutions of a freshly prepared 10 mg/ml stock solution of 2′,7-bis-CAC-DAP were linear throughout the concentration range anticipated for the samples. A decay curve was generated by following the decrease in compound peak area versus time. An apparent half-life (T1/2) was then calculated from a semi-log plot using Microsoft Excel. The decay curve for 2′,7-bis-CAC-DAP appears to follow pseudo first-order kinetics typical for solvolysis reactions. The T1/2 value for conversion to 7-CAC-DAP is 5.5 hrs. The product growth curve matches very closely with the compound decay curve. Similar results were obtained for all of the other 2′-chloroacetylated derivatives listed in FIG. 2-Table 1 except for 2′ CAC-DAP whose T1/2 appears to be about three-times longer (18 hrs.). Nevertheless, this derivative is still much more labile than the chloroacetyl esters placed at either the 7- or 10-positions (T1/2 values all >>72 hrs.).
For the more concentrated experiments, a 10 mg/ml solution of 2′,7-bis-CAC-DAP was allowed to stand at ambient temperature. […] For the weakly acidic studies, less than 4% breakdown of 2′,7-bis-CAC-DAP was observed over 48 hrs. and the calculated T1/2 was determined to be >1,000 hrs. […]

[2] = Alcoholysis of 2′-acyl group followed by analytical HPLC (Examples 1-4); type: physicochemical
Source text: As part of research to better understand the interaction of PAC-related compounds with various components within cancer cells,^11,12 the inventors deployed CAC protection of both PAC and 10-deacetylpaclitaxel (DAP) (FIG. 4). During purification of various mixtures of the three predominate CAC derivatives obtained for DAP, namely the 2′-mono-, the 2′,7-bis- and the 2′,7,10-tri-CAC protected materials, the 2′-adducts appeared to be unstable when allowed to stand for prolonged periods in methanol. Testing purified materials on a 1 mg scale confirmed this observation. Moving to a larger sample, a 40 mL solution of 2′,7-bis-CAC-DAP was then examined at a concentration of 1 mg/mL. Methanolysis of the 2′-adduct was complete after 48 hours at ambient temperature. The exclusive product was isolated by evaporation of solvent, washed with cold water, and its structure characterized as 7-mono-CAC-DAP according to NMR (FIG. 5-Table 2) and elemental analysis. […] In this case the structural integrity for the latter was additionally confirmed by its independent synthesis analogous to a literature procedure^4 wherein after treatment of PAC with chloroacetic anhydride in pyridine, the reaction mixture was subjected to 10 mM ammonia at room temperature for 1 hour prior to preparative HPLC separation of the resulting mixture of esters.
7-Monochloroacetyl-10-deactylpaclitaxel (7-CAC-DAP) (2). 2′,7-bis-CAC-DAP (1) (30 mg, 0.031 mmol) was dissolved in 40 mL of methanol (HPLC grade) and left at ambient temperature. 20 μL samples were withdrawn at several hour intervals and analyzed directly by HPLC. The conversion was complete in 48 hrs. Solvent was evaporated to dryness leaving a glossy residue which crystallized upon addition of water. Yield: 25 mg (0.028 mmol) having 97% purity by HPLC; mp 163-166° C.; Analytical HPLC RT=24 min. (Discovery column); Elemental Analysis calculated for formula C47H50ClNO14: C, 63.55%; H, 5.67%; N, 1.58%. Found: C, 63.08%; H, 5.97%; N, 1.63%.
7-Monochloroacetylpaclitaxel (7-CAC-PAC) (4). 1 mg of 2′,7-bis-CAC-PAC (3) was dissolved in 1 mL of methanol and the solution left at ambient temperature. 20 μL samples were withdrawn at several hour intervals and directly analyzed by HPLC. The conversion was complete in 48 hours. […] (Discovery column); Elemental Analysis calculated for formula C49H52Cl NO15: C, 63.26%; H, 5.63%; N, 1.51%. […]
7-Methoxyacetylpaclitaxel (7-MAC-PAC) (5). […] Samples (20 μl) were withdrawn at several hour intervals and analyzed directly by HPLC. […] (Suplecosil column); Elemental analysis calculated for C50 H55 NO16.H2O: C, 63.36%; H, 6.09%; N, 1.48%. […]

Breakdown to DAP ([1]; methanol, studied for up to 120 hrs.): no significant breakdown
Structure (SMILES): CC(=O)OC12COC1CC(OC(=O)CCl)C1(C)C(=O)C(O)C3=C(C)C(OC(=O)C(O)C(NC(=O)c4ccccc4)c4ccccc4)CC(O)(C(OC(=O)c4ccccc4)C21)C3(C)C (centres unmarked) [Compound 7-CAC-DAP, 7-Monochloroacetyl-10-deactylpaclitaxel]

Breakdown ([1]; 1 mg/ml in methanol with 0.2% acetic acid, over 48 hrs.): less than 4%
Solvolysis in more concentrated methanolic solution ([1]; 20 mg/ml, for preparative HPLC): did not appear to undergo solvolysis
Stability in methanol solution ([1]; concentration of 1 mg/ml): unstable
Conversion (loss of 2′-acyl group) ([2]; 80% ethanol/20% water, 56° C., 24 hours): Approximately 50%
Conversion (loss of 2′-acyl group) ([2]; 80% ethanol/20% water, ambient temp., 22 hours): Approximately 20%
Time to complete methanolysis of the 2′-adduct ([2]; about 1 mg/mL in methanol, ambient temperature): 48 h
Structure (SMILES): CC(=O)O[C@@]12CO[C@@H]1C[C@H](OC(=O)CCl)[C@@]1(C)C(=O)[C@H](O)C3=C(C)[C@@H](OC(=O)[C@H](OC(=O)CCl)[C@@H](NC(=O)c4ccccc4)c4ccccc4)C[C@@](O)([C@@H](OC(=O)c4ccccc4)[C@H]21)C3(C)C [2′,7-bis-CAC-DAP, 2′,7-bis-Monochloroacetyl-10-deacetylpaclitaxel]

Conversion (loss of 2′-acyl group) ([2]; 30 mg in 60 ml methanol, 47° C., within 7 hours): ~90%
Structure (SMILES): COCC(=O)O[C@H]1C[C@H]2OC[C@@]2(OC(C)=O)[C@H]2[C@H](OC(=O)c3ccccc3)[C@]3(O)C[C@H](OC(=O)[C@H](OC(=O)COC)[C@@H](NC(=O)c4ccccc4)c4ccccc4)C(C)=C([C@@H](OC(C)=O)C(=O)[C@]12C)C3(C)C [2′,7-bis-MAC-PAC]
